Laboratory results as given in PubChem BioAssay AID1117275 (Broad Institute, 2014).
Activity calls are given as the source filed them. The rule behind the calls is not given here.

system: orthopoxvirus-infected cells, imaging factories/early/late reporters; test: orthopoxvirus gene expression and factory inhibitors, imaging, high MOI, single point, dry powder (AID 1117275); conditions: at 10 µM; hits give high values

SMILES	late gene expression activity score
C[C@@H](O)C#Cc1ccc2c(c1)O[C@@H](CN(C)Cc1ccc(-c3ccccc3)cc1)[C@@H](C)CN([C@@H](C)CO)S2(=O)=O	17 (inactive)
Cc1cccc(-c2ccc(CN(C)C[C@@H]3Oc4cc(C#C[C@@H](C)O)ccc4S(=O)(=O)N([C@@H](C)CO)C[C@@H]3C)cc2)c1	78
C[C@@H](O)C#Cc1ccc2c(c1)O[C@@H](CN(C)Cc1ccc(-c3ccccc3Cl)cc1)[C@@H](C)CN([C@@H](C)CO)S2(=O)=O	71
C[C@@H](O)C#Cc1ccc2c(c1)O[C@@H](CN(C)S(=O)(=O)c1ccc(-c3ccccc3)cc1)[C@@H](C)CN([C@@H](C)CO)S2(=O)=O	86
Cc1ccccc1-c1ccc(CN(C)C[C@@H]2Oc3cc(C#C[C@@H](C)O)ccc3S(=O)(=O)N([C@@H](C)CO)C[C@@H]2C)cc1	67
Cc1ccc(-c2ccc(CN(C)C[C@@H]3Oc4cc(C#C[C@@H](C)O)ccc4S(=O)(=O)N([C@@H](C)CO)C[C@@H]3C)cc2)cc1	73
